*1 amine or outer side, *2 acyl side, *3 side chain or, on linkers, in order; H or OH if unused. Where a SMILES comes first, the peptide text is derived from it. [ ]: non-standard residue; d: D form. The star is where a group is joined. DOTA = O=C(O)CN1CCN(CC(=O)O)CCN(CC(=O)*)CCN(CC(=O)O)CC1; d(γGlu) = O=C(O)[C@@H](CCC(=O)[*:2])N[*:1]; 1Nal = N[C@@H](Cc1cccc2ccccc12)C(=O)O; NMeNle = CCCC[C@H](NC)C(=O)O; PEG4 = NCCOCCOCCOCCOCCC(=O)O
What was measured:
in vivo = assay: in vivo; design: species or system 394-NOD SCID mice; conditions: 394-NOD SCID, mouse, 1.1 MBq
Protocol: Static PET/CT images of control group animals were acquired (n = 5) 1 h after injection of [^68Ga]Ga-DOTA-CCK-66 using a preclinical PET/CT scanner (Genisys 8 PET/CT; Sofie Biosciences, Dulles, VA, USA), according to a published procedure. PET image reconstruction was carried out using a maximum-likelihood expectation maximization with 60 iterations. Correction for photon attenuation of all images was performed. Acquisition parameters for CT applications were 40 kVp and […]. Acquired data were analyzed using OsiriX Imaging Software (version 3.9.3; Pixmeo SARL, Bernex, Switzerland).

AR42J tumor = assay: Single-dose treatment study (tumor volume, survival); type: in vivo, 394-NOD SCID mice; conditions: for Tumor volume: single injection on day 0: [225Ac] 37 kBq (178 pmol), caliper, mean±SD, n=5
Protocol: AR42J cells (2 × 10^6 cells, 100 µL suspended in Matrigel) were subcutaneously inoculated into the right shoulder region of mice. When tumors reached 30 to 290 mm^3 (14 to 17 d after inoculation), […] into 3 groups (5 per group). On day 0 of the experiment mice received a single-dose injection of either [^68Ga]Ga-DOTA-CCK-66 (1.1 MBq, PET/CT imaging, control cohort), [^177Lu]Lu-DOTA-CCK-66 (37 MBq) or [^225Ac]Ac-DOTA-CCK-66 (37 kBq). Tumor volume (caliper measurements, length^2 × width/2) and body weight of all animals were subsequently monitored twice a week. Animals were sacrificed after reaching one of the end-point criteria (weight loss of more than 20%, tumor volume of more than 2,000 mm^3, ulceration of the tumor, respiratory distress, or change of behavior).

Compound `CCCC[C@@H](C(=O)N[C@@H](CC(=O)O)C(=O)N[C@@H](Cc1cccc2ccccc12)C(N)=O)N(C)C(=O)[C@H](Cc1c[nH]c2ccccc12)NC(=O)CCOCCOCCOCCOCCNC(=O)CC[C@@H](NC(=O)CN1CCN(CC(=O)O)CCN(CC(=O)O)CCN(CC(=O)O)CC1)C(=O)O` [[^68Ga]Ga-DOTA-CCK-66, metal not drawn] ({DOTA-d(γGlu)-PEG4}-W[NMeNle]D[1Nal]-NH2) has an SUV at 1 h (in vivo) of 2.02 ± 0.77 SUV.
With `CCCC[C@@H](C(=O)N[C@@H](CC(=O)O)C(=O)N[C@@H](Cc1cccc2ccccc12)C(N)=O)N(C)C(=O)[C@H](Cc1c[nH]c2ccccc12)NC(=O)CCOCCOCCOCCOCCNC(=O)CC[C@@H](NC(=O)CN1CCN(CC(=O)O)CCN(CC(=O)O)CCN(CC(=O)O)CC1)C(=O)O` [[^225Ac]Ac-DOTA-CCK-66] [metal not drawn] ({DOTA-d(γGlu)-PEG4}-W[NMeNle]D[1Nal]-NH2) the “fold increase in mean survival, 225Ac-TAT compared to 177Lu-RLT” value (AR42J tumor; 54 d versus 37 d, p = 0.0003) was 1.5 fold, the Tumor volume (AR42J tumor; day 0, [177Lu] 37 MBq (1.7 nmol), [68Ga] control cohort 1.1 MBq (29 pmol)) was 150±80 mm^3 and the Tumor volume (AR42J tumor; day 3, [177Lu] 37 MBq (1.7 nmol), [68Ga] control cohort 1.1 MBq (29 pmol)) was 170±110 mm^3. The Tumor volume (AR42J tumor; day 7, [177Lu] 37 MBq (1.7 nmol), [68Ga] control cohort 1.1 MBq (29 pmol)) was 130±60 mm^3, the Tumor volume (AR42J tumor; day 10, [177Lu] 37 MBq (1.7 nmol), [68Ga] control cohort 1.1 MBq (29 pmol)) was 100±60 mm^3 and the Tumor volume (AR42J tumor; day 14, [177Lu] 37 MBq (1.7 nmol)) was 100±50 mm^3. The Tumor volume (AR42J tumor; day 17, [177Lu] 37 MBq (1.7 nmol)) was 100±50 mm^3, the Tumor volume (AR42J tumor; day 21, [177Lu] 37 MBq (1.7 nmol)) was 90±60 mm^3 and the Tumor volume (AR42J tumor; day 24, [177Lu] 37 MBq (1.7 nmol)) was 130±70 mm^3. For the same compound, the Tumor volume (AR42J tumor; day 28, [177Lu] 37 MBq (1.7 nmol)) was 130±80 mm^3, the Tumor volume (AR42J tumor; day 31, [177Lu] 37 MBq (1.7 nmol)) was 160±90 mm^3 and the Tumor volume (AR42J tumor; day 35) was 240±130 mm^3. For the same compound, the Tumor volume (AR42J tumor; day 38) was 470±280 mm^3, the Tumor volume (AR42J tumor; day 42) was 740±430 mm^3 and the Tumor volume (AR42J tumor; day 45) was 1,040±690 mm^3. For the same compound, the Tumor volume (AR42J tumor; day 49) was 1,600±830 mm^3, the Mean survival (AR42J tumor; single dose on day 0: [225Ac] 37 kBq, [177Lu] 37 MBq, [68Ga] 1.1 MBq (control group), n=5 per group) was 54 ± 6 days and the “fold increase in mean survival versus control group” value (AR42J tumor; single dose: [225Ac] 37 kBq, [177Lu] 37 MBq, control 12 ± 3 d) was 4.5 fold.
